Holding throughout (assay): growth of human tumour cells (NCI), 48 h
Test [1] deals with CAKI-1 renal.
Test [2] deals with IGROV1 ovarian.
The subject of test [3] is MALME-3M melanoma.
Test [4] relates to NCI/ADR-RES ovarian.
For test [5], the system named is OVCAR-3 ovarian.
In test [6] the test system is RPMI-8226 leukemia.
The subject of test [7] is SF-268 CNS.
Test [8] concerns SK-MEL-5 melanoma.
The subject of test [9] is SNB-75 CNS.
In test [10] the test system is TK-10 renal.

Structures are written as SMILES. Where “and” joins values, the source holds several entries; their conditions need not be identical. Identical values can stand only once.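 These data come from cells grown in 96-well plates and exposed to compound for 48 hours at five concentrations. Here, GI50 denotes the concentration required for 50% inhibition of growth. TGI: total growth inhibition.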

Turning to `O=C(NOC[C@H](O)CO)c1ccc(F)c(F)c1Nc1ccc(I)cc1F`, the TGI in [1] was more than 100 µM; in test [2], more than 100 µM; in test [3], < 0.01 µM and 0.00323 µM; in test [4], more than 100 µM; in [5], more than 100 µM; in test [6] it was more than 100 µM. Further, the TGI was more than 100 µM in test [7]; more than 100 µM in test [8]; more than 100 µM in test [9]; 86.2 µM and > 10 µM in test [10]. Further, the GI50 in [3] is less than 0.01 µM; in test [4] it was 12.3 µM and 6.3 µM; in test [5] it was 37.6 µM and > 10 µM; in [6], 35.9 µM and > 10 µM; in test [7], 25.6 µM and > 2.28 µM; in [8], 4.17 µM and > 10 µM. The GI50 is 17.8 µM and > 10 µM in test [9]; 0.0314 µM and 0.0174 µM in test [10].

For `S=c1snc2n1CCN2`, the GI50 was more than 100 µM in test [1]; more than 100 µM in [2]; more than 100 µM in test [3]; more than 100 µM in test [4]; more than 100 µM in [5]; 42.2 µM in test [6]. Besides, the GI50 in test [7] was more than 100 µM; in test [8], 58.2 µM; in test [9], more than 100 µM; in [10], more than 100 µM. The TGI in [1], in [2], in test [3], in test [4], in [5] and in [6] was more than 100 µM throughout. Also, the TGI in test [7], in [8], in test [9] and in [10] was more than 100 µM each time.

With `CC[C@H](Nc1ncnc2nc[nH]c12)c1nc2cccc(F)c2c(=O)n1-c1ccccc1`, the GI50 in test [1] was 9.94 µM; in test [2] it was 4.09 µM; in test [3], 17.2 µM; in [4], 86.8 µM; in [5], 10.2 µM; in [6], 37.6 µM. Further, the GI50 in [7] was 19.2 µM; in [8] it was 26.1 µM; in test [9] it was 0.715 µM; in test [10], 12.5 µM. Also, the TGI in [1] was more than 100 µM; in test [2], 22.7 µM; in test [3], more than 100 µM; in test [4] it was more than 100 µM; in [5], more than 100 µM; in test [6], more than 100 µM. The TGI is more than 100 µM in [7], more than 100 µM in test [8], 16.6 µM in test [9] and more than 100 µM in [10].
